From ChEMBL document CHEMBL1201862, “PubChem BioAssay data set” (2004) come the findings set out here.

Holding throughout (assay): NCI-60 cell line screen, 48 h
Experiment [1] has as its system SK-OV-3.
Experiment [2] relates to MDA-MB-231.
Experiment [3] relates to ACHN.
Experiment [4] deals with SF-268.
Experiment [5] has as its system HL-60.
For experiment [6], the system named is T47D.
Experiment [7] has as its system MDA-MB-435.
The test system of experiment [8] is LOX IMVI.
For experiment [9], the system named is OVCAR-3.
For experiment [10], the system named is HCT-116.
Experiment [11] concerns SK-MEL-28.
The subject of experiment [12] is NCI-H23.
The test system of experiment [13] is OVCAR-5.
For experiment [14], the system named is SF-539.
The subject of experiment [15] is 786-0.
For experiment [16], the system named is UO-31.
The subject of experiment [17] is SNB-75.
Experiment [18] has as its system NCI-H522.
Experiment [19] has as its system TK-10.
The subject of experiment [20] is CCRF-CEM.

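Interpolation was linear, between the two tested concentrations surrounding the appropriate level; five concentrations were tested over 48 hours in 96-well plates. GI50: concentration for 50% inhibition of growth.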 Calls of active or inactive are those of the source. Cut-off read from the data, not from the text of the source: active = GI50 up to about 1.1 µM and inactive = higher.

For the compound `O=C(Nc1sccc1S(=O)(=O)c1ccccc1)c1cccnc1`, the GI50 in [1] was 11.7 µM (inactive); in [2], > 69.5 µM (inactive); in experiment [3], 64.9 µM (inactive); in [4], 57.4 µM (inactive); in experiment [5], 0.614 µM (active); in [6], 70.6 µM (inactive). In addition, the GI50 was 1.83 µM (inactive) in experiment [7]; 75.3 µM (inactive) in experiment [8]; 11.6 µM (inactive) in [9]; 6.59 µM (inactive) in experiment [10]; 38.5 µM (inactive) in experiment [11]; 27 µM (inactive) in experiment [12]. For the same compound, the GI50 is > 70.6 µM (inactive) in [13]; 5.94 µM (inactive) in experiment [14]; 12 µM (inactive) in experiment [15]; > 58.1 µM (inactive) in experiment [16]; 19.1 µM (inactive) in experiment [17]; 7.98 µM (inactive) in experiment [18]. Further, the GI50 is > 83 µM (inactive) in experiment [19] and 7.03 µM (inactive) in [20].

For `CCOC(=O)C(SCCO)C(C(=O)OCC)n1ccc(N)nc1=O` (stereo not given), the GI50 in [1], in [2], in experiment [3], in [4], in [5] and in experiment [6] was > 100 µM (inactive) throughout. Further, the GI50 in [7], in [8], in experiment [9], in experiment [10], in experiment [11] and in experiment [12] was > 100 µM (inactive) in each case. The GI50 in experiment [13], in experiment [14], in experiment [15], in [16], in [17] and in experiment [18] was > 100 µM (inactive) each time. For the same compound, the GI50 in experiment [19] and in [20] was > 100 µM (inactive) throughout.

Turning to `CCCCc1ccc(-n2sc3ncc([N+](=O)[O-])cc3c2=O)cc1`, the GI50 in experiment [1] is > 100 µM (inactive); in experiment [2], 11.4 µM (inactive); in experiment [3], 14.8 µM (inactive); in experiment [4], 13 µM (inactive); in experiment [5], 10.4 µM (inactive); in experiment [6], 10.1 µM (inactive). The GI50 in experiment [7] was 14.4 µM (inactive); in experiment [8], 13.3 µM (inactive); in experiment [9] it was 5.05 µM (inactive); in [10], 8.57 µM (inactive); in experiment [11], 14.1 µM (inactive); in [12], 11.2 µM (inactive). For the same compound, the GI50 is 13.4 µM (inactive) in [13]; 15.3 µM (inactive) in [14]; 15 µM (inactive) in experiment [15]; 12.5 µM (inactive) in [16]; 4.22 µM (inactive) in experiment [17]; 1.2 µM (inactive) in experiment [18]. Further, the GI50 in [19] was 21.1 µM (inactive); in experiment [20], 7.24 µM (inactive).

Consider `Nc1nc2c(ncn2Cc2ccc(CO)cc2)c(=O)[nH]1`, for which the GI50 in [1] is > 100 µM (inactive); in experiment [2] it was > 100 µM (inactive); in [3], > 100 µM (inactive); in experiment [4], > 100 µM (inactive); in experiment [5], 4.42 µM (inactive); in [6], > 100 µM (inactive). Further, the GI50 in [7], in [8], in [9], in [10], in experiment [11] and in experiment [12] was > 100 µM (inactive) throughout. Further, the GI50 in experiment [13], in [14], in experiment [15], in [16], in experiment [17] and in experiment [18] was > 100 µM (inactive) throughout. Moreover, the GI50 in experiment [19] and in experiment [20] was > 100 µM (inactive) throughout.

As to `CCOC(=O)c1c(C)n(-c2ccc(C)cc2)c2c1cc(O)c1[nH]c3c(c12)CCCC3`, the GI50 in [1] is 87.3 µM (inactive); in [2], 20 µM (inactive); in [3], 22.1 µM (inactive); in experiment [4] it was 17.5 µM (inactive); in experiment [5], 7.4 µM (inactive); in experiment [6], 20.9 µM (inactive). Also, the GI50 was 20.1 µM (inactive) in experiment [7]; 14.4 µM (inactive) in experiment [8]; 12.9 µM (inactive) in experiment [9]; 21.8 µM (inactive) in experiment [10]; 16.3 µM (inactive) in experiment [11]; 20.3 µM (inactive) in experiment [12]. In addition, the GI50 in experiment [13] was 23.5 µM (inactive); in [14], 15.7 µM (inactive); in [15], 16.9 µM (inactive); in [16], 13.9 µM (inactive); in [17], 0.0658 µM (active); in [18] it was 12.7 µM (inactive). In addition, the GI50 in experiment [19] was 27.5 µM (inactive); in experiment [20], 1.38 µM (inactive).

For the compound `CC(C)[C@@H]1ON1C(C)c1ccccc1` (stereo not given in full), the GI50 in experiment [1] was > 100 µM (inactive); in experiment [2] it was > 100 µM (inactive); in experiment [3], > 100 µM (inactive); in experiment [4] it was > 100 µM (inactive); in experiment [5] it was 94.8 µM (inactive); in [6], > 100 µM (inactive). For the same compound, the GI50 in [7], in [8], in experiment [9], in [10], in experiment [11] and in experiment [12] was > 100 µM (inactive) throughout. The GI50 in [13], in [14], in [15], in experiment [16], in [17] and in experiment [18] was > 100 µM (inactive) throughout. Also, the GI50 in experiment [19] and in experiment [20] was > 100 µM (inactive) throughout.
